Test results from ChEMBL document CHEMBL1126745, “2,2-Dialkylnaphthalen-1-ones as new potassium channel activators” (J Med Chem, 1993).

Assays:
Rattus norvegicus [1] = assay: Change in systolic blood pressure at intervals of 1 hr after oral administration of 1 mg/kg of compound in spontaneously hypertensive rats (in vivo); assay type: functional, Artery
Rattus norvegicus [2] = organism: Rattus norvegicus; assay: In vitro inhibition of noradrenaline-induced contractions in rat portal vein; assay type: functional
Cavia porcellus = organism: Cavia porcellus; assay: In vitro inhibition of spontaneous tone of guinea pig tracheal spirals; assay type: functional; conditions: Trachea

Row | Compound | Max fall in blood pressure (Rattus norvegicus [1]) [mmHg] | IC50 (Rattus norvegicus [2]) [µM] | IC50 (Cavia porcellus) [µM]
1 | CC1(C)C(=O)c2ccc(C#N)cc2[C@@H](NC(=O)c2cccnc2)[C@@H]1O | 50 | 2.8 | 4.1
2 | CC1(C)C=C(n2ccccc2=O)c2ccc(Br)cc2C1=O | 37 | 2.7 | 4.7
3 | CC(=O)c1ccc2c(c1)C(n1ccccc1=O)=CC(C)(C)C2=O | 56.5 | 3.3 | 1
4 | CCC1(CC)C=C(n2ccccc2=O)c2cc(C#N)ccc2C1=O | 35.6 | 7.8 | 2.6
5 | CC1(C)C(=O)c2ccc(C#N)cc2[C@@H](N2Cc3ccccc3C2=O)[C@@H]1O | 76 | 0.5 | 1.1
6 | CC(=O)N(C)c1ccc2c(c1)C(n1ccccc1=O)=CC(C)(C)C2=O | 74 | 4.3 | 3.1
7 | CC1(C)C(=O)c2ccc(Br)cc2[C@@H](n2ccccc2=O)[C@@H]1O | 31 | 28 | > 10
8 | CC1(C)C(=O)c2cc(Br)ccc2[C@@H](n2ccccc2=O)[C@@H]1O | 29.3 | 42 | 
9 | CC(=O)N(C)c1ccc2c(c1)C(N1CCCC1=O)=CC(C)(C)C2=O | 23 | 17 | 2.5
10 | CC1(C)C(=O)c2ccc(C#N)cc2[C@@H](n2ccccc2=O)[C@@H]1OC=O | 42 |  | 4.3
11 | CC1(C)C=C(n2ccccc2=O)c2cc(S(=O)(=O)c3ccccc3)ccc2C1=O | 32.6 | 0.1 | 0.5
12 | CC1(C)C=C(NC(=O)c2ccccn2)c2cc(C#N)ccc2C1=O | 22.5 | 9 | 3.1
13 | COc1ccc2c(c1)C(n1ccccc1=O)=CC(C)(C)C2=O |  | 21 | 3.1
14 | CC1(C)C(=O)c2ccc(C#N)cc2[C@@H](NC(=O)c2ccccn2)[C@@H]1O |  | 23 | > 10
15 | CC(=O)N(C)c1ccc2c(c1)[C@@H](n1ccccc1=O)[C@H](O)C(C)(C)C2=O | 94 | 33 | > 10
16 | CC1(C)C(=O)c2ccc(Br)cc2[C@@H](Oc2ccc(=O)[nH]n2)[C@@H]1O |  | 0.8 | 4.4
17 | CO/N=C1\c2ccc(C#N)cc2C(n2ccccc2=O)=CC1(C)C | 32.4 | 25 | > 10
18 | CC1(C)C(=O)c2ccc(C#N)cc2[C@@H](Oc2ccccn2)[C@@H]1O | 43 | 25 | 5.5
19 | CC(=O)O[C@H]1[C@H](n2ccccc2=O)c2cc(C#N)ccc2C(=O)C1(C)C |  | 23 | 2
20 | CC1(C)C=C(N2CCCC2=O)c2cc(Br)ccc2C1=O |  | 10 | 7.3
21 | CCC1(CC)C=C(n2ccccc2=O)c2cc(Br)ccc2C1=O | 44 | 3.3 | 8
22 | CC1(C)C(=O)c2cc(Cl)c(Cl)cc2[C@@H](n2ccccc2=O)[C@@H]1O | 52 | 1.5 | 5
23 | CC1(C)C=C(n2ccccc2=O)c2cc(Cl)ccc2C1=O | 53.7 | 1.4 | 1.1
24 | COc1ccc(C(=O)N[C@@H]2c3cc(C#N)ccc3C(=O)C(C)(C)[C@H]2O)cc1 |  | 12 | 12.2
25 | C=CCn1nc(O[C@@H]2c3cc(C#N)ccc3C(=O)C(C)(C)[C@H]2O)ccc1=O |  | 14 | 3.9
26 | CC1(C)C(=O)c2ccc(C(F)(F)F)cc2[C@@H](n2ccccc2=O)[C@@H]1O |  |  | 1.4
27 | CC1(C)C(=O)c2ccc(C#N)cc2[C@@H](NC(=O)c2ccccc2)[C@@H]1O | 31 |  | 1.8
28 | CC1(C)C(=O)c2ccc(S(=O)(=O)c3ccccc3)cc2[C@@H](n2ccccc2=O)[C@@H]1O |  | 0.3 | 0.7
